Results reported in US20260103461A1, “ESTROGEN RECEPTOR MODULATORS AND USES THEREOF” (Olema Pharmaceuticals, Inc., priority 2022, published 2026).

These molecules were tested against T1, estrogen receptor (Homo sapiens, UniProt P03372) (assay: AP (alkaline phosphatase) assay in ECC-1 cells, agonist mode and antagonist mode). Details: 3 days, absence of E2 (agonist mode) or 500 pM E2 (antagonist mode), AP activity normalized to 500 pM E2 alone.
T1 construct: endogenous in cells; host or cells: ECC-1 cells
T1 sequence (P03372 1-595): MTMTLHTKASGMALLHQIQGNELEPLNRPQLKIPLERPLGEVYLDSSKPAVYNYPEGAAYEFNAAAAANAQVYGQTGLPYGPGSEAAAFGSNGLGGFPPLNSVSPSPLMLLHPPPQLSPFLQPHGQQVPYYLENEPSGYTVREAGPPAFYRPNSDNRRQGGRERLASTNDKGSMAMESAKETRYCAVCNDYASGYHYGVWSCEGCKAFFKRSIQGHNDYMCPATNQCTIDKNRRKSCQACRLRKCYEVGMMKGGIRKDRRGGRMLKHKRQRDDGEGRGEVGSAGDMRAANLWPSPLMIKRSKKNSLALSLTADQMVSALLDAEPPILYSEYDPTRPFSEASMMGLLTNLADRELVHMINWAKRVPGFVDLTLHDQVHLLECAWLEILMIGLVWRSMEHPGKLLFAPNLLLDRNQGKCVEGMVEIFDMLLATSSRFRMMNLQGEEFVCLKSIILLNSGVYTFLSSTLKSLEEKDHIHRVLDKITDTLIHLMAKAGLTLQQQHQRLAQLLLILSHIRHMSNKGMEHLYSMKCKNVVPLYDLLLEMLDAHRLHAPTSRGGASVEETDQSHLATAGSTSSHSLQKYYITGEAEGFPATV
Assay type: cell-based
Method: ECC-1 cells were trypsinized and resuspended in hormone-depleted media and plated at a density of 15 k cells per well into a 96-well plate for at least 4 hours. Cells were treated with test compounds in the absence of E2 (for agonist mode) or in the presence of 500 pM E2 (for antagonist mode) for 3 days and plates were subsequently frozen at −80° C. Thawed plates were incubated with a chromogenic substrate of AP, p-nitrophenyl phosphate (Thermo Fisher Scientific), for 40 minutes at 42° C., and absorbances were read at 405 nm. AP activity was normalized to the activity of 500 pM E2 alone.
The compound numbers correspond to the compound numbers of Table 1 and 2. Compounds having an activity designated as “+” provided estrogen receptor agonism having (i) at least 80% increase in the E2-normalized signal in the AP assay (agonist mode) and (ii) no more than 80% reduction in the E2-normalized signal in the AP assay (antagonist mode). Compounds having an activity designated as “++” provided estrogen receptor antagonism having (i) between 10% and 80% increase in the E2-normalized signal in the AP assay (agonist mode) and (ii) between 10% and 80% reduction in the E2-normalized signal in the AP assay (antagonist mode).
In the case of `CCCN1CC(Oc2ccc([C@@H]3c4[nH]c5ccccc5c4C[C@@H](C)N3CC(C)(C)F)s2)C1` [Example I-1, 3-({5-[(1S,3R)-2-(2-fluoro-2-methylpropyl)-3-methyl-1H,2H,3H,4H,9H-pyrido[3,4-b]indol-1-yl]thiophen-2-yl}oxy)-1-propylazetidine], the “Activity (estrogen receptor modulation, agonism and antagonism)” value (“Activity” for short) is reported as “++ (estrogen receptor antagonism having (i) between 10% and 80% increase in the E2-normalized signal in the AP assay (agonist mode) and (ii) between 10% and 80% reduction in the E2-normalized signal in the AP assay (antagonist mode))”.
With `CCCN1CC(Oc2ncc([C@@H]3c4[nH]c5ccccc5c4C[C@@H](C)N3CC(C)(C)F)s2)C1` [Example I-3, 5-[(1S,3R)-2-(2-fluoro-2-methylpropyl)-3-methyl-1H,2H,3H,4H,9H-pyrido[3,4-b]indol-1-yl]-2-[(1-propylazetidin-3-yl)oxy]-1,3-thiazole] the “Activity” value was “++ (estrogen receptor antagonism having (i) between 10% and 80% increase in the E2-normalized signal in the AP assay (agonist mode) and (ii) between 10% and 80% reduction in the E2-normalized signal in the AP assay (antagonist mode))”.
For `C[C@@H]1Cc2c([nH]c3ccccc23)[C@@H](c2ccc(O[C@@H]3CCN(CCCF)C3)s2)N1CC(F)F` [Example I-19, (1S,3R)-2-(2,2-difluoroethyl)-1-[5-[(3R)-1-(3-fluoropropyl)pyrrolidin-3-yl]oxy-2-thienyl]-3-methyl-1,3,4,9-tetrahydropyrido[3,4-b]indole], the “Activity” value was “+++ (estrogen receptor antagonism (i) with pIC50 greater than 7.5 and at least a 10% reduction in the E2-normalized signal in the AP assay (antagonist mode); and no more than 10% increase in E2-normalized signal in the AP assay (agonist mode))”.
In the case of `C[C@@H]1Cc2c([nH]c3ccccc23)[C@@H](c2ccc(O[C@@H]3CCN(CCCF)C3)s2)N1CC(C)(C)F` [Example I-5, (3R)-3-({5-[(1S,3R)-2-(2-fluoro-2-methylpropyl)-3-methyl-1H,2H,3H,4H,9H-pyrido[3,4-b]indol-1-yl]thiophen-2-yl}oxy)-1-(3-fluoropropyl)pyrrolidine], the “Activity” value is reported as “+ (estrogen receptor agonism having (i) at least 80% increase in the E2-normalized signal in the AP assay (agonist mode) and (ii) no more than 80% reduction in the E2-normalized signal in the AP assay (antagonist mode))”.
`C[C@@H]1Cc2c([nH]c3ccccc23)[C@@H](c2cnc(O[C@@H]3CCCN(CCCF)C3)s2)N1CC(F)(F)CO` [Example I-37, 2,2-difluoro-3-[(1S,3R)-1-[2-[[(3R)-1-(3-fluoropropyl)-3-piperidyl]oxy]thiazol-5-yl]-3-methyl-1,3,4,9-tetrahydropyrido[3,4-b]indol-2-yl]propan-1-ol] was tested, and the “Activity” value was “+++ (estrogen receptor antagonism (i) with pIC50 greater than 7.5 and at least a 10% reduction in the E2-normalized signal in the AP assay (antagonist mode); and no more than 10% increase in E2-normalized signal in the AP assay (agonist mode))”.
For `C[C@@H]1Cc2c([nH]c3ccccc23)[C@@H](c2cnc(O[C@@H]3CCN(CCCF)[C@H]3C)s2)N1CC(F)(F)CO` [Example I-34, 2,2-difluoro-3-[(1S,3R)-1-[2-[(2S,3R)-1-(3-fluoropropyl)-2-methyl-pyrrolidin-3-yl]oxythiazol-5-yl]-3-methyl-1,3,4,9-tetrahydropyrido[3,4-b]indol-2-yl]propan-1-ol], the “Activity” value was “+ (estrogen receptor agonism having (i) at least 80% increase in the E2-normalized signal in the AP assay (agonist mode) and (ii) no more than 80% reduction in the E2-normalized signal in the AP assay (antagonist mode))”.
`C[C@@H]1Cc2c([nH]c3ccccc23)[C@@H](c2ncc(OC3CN(CCCF)C3)s2)N1CC(C)(C)F` [Example I-9, 2-[(1S,3R)-2-(2-fluoro-2-methyl-propyl)-3-methyl-1,3,4,9-tetrahydropyrido[3,4-b]indol-1-yl]-5-[1-(3-fluoropropyl)azetidin-3-yl]oxy-thiazole] was tested, and the “Activity” value was “++ (estrogen receptor antagonism having (i) between 10% and 80% increase in the E2-normalized signal in the AP assay (agonist mode) and (ii) between 10% and 80% reduction in the E2-normalized signal in the AP assay (antagonist mode))”.
With `C[C@@H]1Cc2c([nH]c3ccccc23)[C@@H](c2ccc(OC3CN(CCCF)C3)s2)N1CC(F)(F)CO` [Example I-12, 2,2-difluoro-3-[(1S,3R)-1-[5-[1-(3-fluoropropyl)azetidin-3-yl]oxy-2-thienyl]-3-methyl-1,3,4,9-tetrahydropyrido[3,4-b]indol-2-yl]propan-1-ol] the “Activity” value was “+++ (estrogen receptor antagonism (i) with pIC50 greater than 7.5 and at least a 10% reduction in the E2-normalized signal in the AP assay (antagonist mode); and no more than 10% increase in E2-normalized signal in the AP assay (agonist mode))”.
With `C[C@@H]1Cc2c([nH]c3ccccc23)[C@@H](c2cnc(O[C@@H]3CON(CCCF)C3)s2)N1CC(F)(F)CO` [Example I-36, 2,2-difluoro-3-[(1S,3R)-1-[2-[(4S)-2-(3-fluoropropyl)isoxazolidin-4-yl]oxythiazol-5-yl]-3-methyl-1,3,4,9-tetrahydropyrido[3,4-b]indol-2-yl]propan-1-ol] the “Activity” value was “+ (estrogen receptor agonism having (i) at least 80% increase in the E2-normalized signal in the AP assay (agonist mode) and (ii) no more than 80% reduction in the E2-normalized signal in the AP assay (antagonist mode))”.
In the case of `C[C@@H]1[C@H](Oc2ncc([C@@H]3c4[nH]c5ccccc5c4C[C@@H](C)N3CC(F)(F)CO)s2)CCN1CCCF` [Example I-35, 2,2-difluoro-3-[(1S,3R)-1-[2-[(2R,3R)-1-(3-fluoropropyl)-2-methyl-pyrrolidin-3-yl]oxythiazol-5-yl]-3-methyl-1,3,4,9-tetrahydropyrido[3,4-b]indol-2-yl]propan-1-ol], the “Activity” value is reported as “+ (estrogen receptor agonism having (i) at least 80% increase in the E2-normalized signal in the AP assay (agonist mode) and (ii) no more than 80% reduction in the E2-normalized signal in the AP assay (antagonist mode))”.
With `C[C@@H]1Cc2c([nH]c3ccccc23)[C@@H](c2sc(OC3CN(CCCF)C3)cc2F)N1CC(F)(F)CO` [Example I-26, 2,2-difluoro-3-[(1S,3R)-1-[3-fluoro-5-[1-(3-fluoropropyl)azetidin-3-yl]oxy-2-thienyl]-3-methyl-1,3,4,9-tetrahydropyrido[3,4-b]indol-2-yl]propan-1-ol] the “Activity” value was “+++ (estrogen receptor antagonism (i) with pIC50 greater than 7.5 and at least a 10% reduction in the E2-normalized signal in the AP assay (antagonist mode); and no more than 10% increase in E2-normalized signal in the AP assay (agonist mode))”.
For `C[C@@H]1Cc2c([nH]c3ccccc23)[C@@H](c2ncc(OC3CN(CCCF)C3)s2)N1CC(F)F` [Example I-18, 2-[(1S,3R)-2-(2,2-difluoroethyl)-3-methyl-1,3,4,9-tetrahydropyrido[3,4-b]indol-1-yl]-5-[1-(3-fluoropropyl)azetidin-3-yl]oxy-thiazole], the “Activity” value was “++ (estrogen receptor antagonism having (i) between 10% and 80% increase in the E2-normalized signal in the AP assay (agonist mode) and (ii) between 10% and 80% reduction in the E2-normalized signal in the AP assay (antagonist mode))”.
With `C[C@@H]1Cc2c([nH]c3ccccc23)[C@@H](c2ncc(O[C@H]3CCN(CCCF)C3)s2)N1CC(C)(C)F` [Example I-6, 2-[(1S,3R)-2-(2-fluoro-2-methylpropyl)-3-methyl-1H,2H,3H,4H,9H-pyrido[3,4-b]indol-1-yl]-5-{[(3S)-1-(3-fluoropropyl)pyrrolidin-3-yl]oxy}-1,3-thiazole] the “Activity” value was “++ (estrogen receptor antagonism having (i) between 10% and 80% increase in the E2-normalized signal in the AP assay (agonist mode) and (ii) between 10% and 80% reduction in the E2-normalized signal in the AP assay (antagonist mode))”.
`C[C@@H]1Cc2c([nH]c3ccccc23)[C@@H](c2cnc(O[C@@H]3CCN(CCCF)C3)s2)N1CC(C)(C)F` [Example I-23, 5-[(1S,3R)-2-(2-fluoro-2-methyl-propyl)-3-methyl-1,3,4,9-tetrahydropyrido[3,4-b]indol-1-yl]-2-[(3R)-1-(3-fluoropropyl)pyrrolidin-3-yl]oxy-thiazole] was tested, and the “Activity” value was “+++ (estrogen receptor antagonism (i) with pIC50 greater than 7.5 and at least a 10% reduction in the E2-normalized signal in the AP assay (antagonist mode); and no more than 10% increase in E2-normalized signal in the AP assay (agonist mode))”.
